Measured values reported in publication PMC8019157 (Antiviral research, 2021).
Read-outs that look alike come from different tables or passages of the source.

Assays:
[1] = target: rabbit skeletal muscle ryanodine receptor Ca^2+ release channel (RyR1) (Oryctolagus cuniculus, UniProt P11716); experiment: [^3H]ryanodine binding/displacement assay with SR membrane vesicles
RyR1 = RyR1 (Oryctolagus cuniculus, UniProt P11716); experiment: Lipid bilayer single channel recordings of purified RyR1; format: biochemical, rabbit
SERCA1 [2] = target: T1, SERCA1 (Oryctolagus cuniculus, UniProt P04191); experiment: ATP-dependent ^45Ca^2+ accumulation by longitudinal SR vesicles; format: biochemical, rabbit
[3] = tested on: C2C12 skeletal muscle myotubes; experiment: Live-cell Ca^2+ imaging; format: cell-based, Mouse
[4] = cited from earlier work; for Cmax: read-out: plasma Cmax
SERCA1 [5] = target: T1, SERCA1; experiment: SERCA1 ATPase activity; format: biochemical, rabbit; details: with and without A23187
[6] = Drug dissolved in ethanol/water; format: physicochemical; details: room temperature (22 °C), HPLC
[7] = Atazanavir 1.56 μM cis, 3.3 μM cis Ca^2+
[8] = Atazanavir 3.12 μM cis, 3.3 μM cis Ca^2+
[9] = Atazanavir 6.78 μM cis, 3.3 μM cis Ca^2+
[10] = Atazanavir 20.00 μM cis, 3.3 μM cis Ca^2+
[11] = Atazanavir 30.00 μM cis, 3.3 μM cis Ca^2+
[12] = Atazanavir […] cis, 3.3 μM cis Ca^2+

Sequence of RyR1 (P11716 whole entry): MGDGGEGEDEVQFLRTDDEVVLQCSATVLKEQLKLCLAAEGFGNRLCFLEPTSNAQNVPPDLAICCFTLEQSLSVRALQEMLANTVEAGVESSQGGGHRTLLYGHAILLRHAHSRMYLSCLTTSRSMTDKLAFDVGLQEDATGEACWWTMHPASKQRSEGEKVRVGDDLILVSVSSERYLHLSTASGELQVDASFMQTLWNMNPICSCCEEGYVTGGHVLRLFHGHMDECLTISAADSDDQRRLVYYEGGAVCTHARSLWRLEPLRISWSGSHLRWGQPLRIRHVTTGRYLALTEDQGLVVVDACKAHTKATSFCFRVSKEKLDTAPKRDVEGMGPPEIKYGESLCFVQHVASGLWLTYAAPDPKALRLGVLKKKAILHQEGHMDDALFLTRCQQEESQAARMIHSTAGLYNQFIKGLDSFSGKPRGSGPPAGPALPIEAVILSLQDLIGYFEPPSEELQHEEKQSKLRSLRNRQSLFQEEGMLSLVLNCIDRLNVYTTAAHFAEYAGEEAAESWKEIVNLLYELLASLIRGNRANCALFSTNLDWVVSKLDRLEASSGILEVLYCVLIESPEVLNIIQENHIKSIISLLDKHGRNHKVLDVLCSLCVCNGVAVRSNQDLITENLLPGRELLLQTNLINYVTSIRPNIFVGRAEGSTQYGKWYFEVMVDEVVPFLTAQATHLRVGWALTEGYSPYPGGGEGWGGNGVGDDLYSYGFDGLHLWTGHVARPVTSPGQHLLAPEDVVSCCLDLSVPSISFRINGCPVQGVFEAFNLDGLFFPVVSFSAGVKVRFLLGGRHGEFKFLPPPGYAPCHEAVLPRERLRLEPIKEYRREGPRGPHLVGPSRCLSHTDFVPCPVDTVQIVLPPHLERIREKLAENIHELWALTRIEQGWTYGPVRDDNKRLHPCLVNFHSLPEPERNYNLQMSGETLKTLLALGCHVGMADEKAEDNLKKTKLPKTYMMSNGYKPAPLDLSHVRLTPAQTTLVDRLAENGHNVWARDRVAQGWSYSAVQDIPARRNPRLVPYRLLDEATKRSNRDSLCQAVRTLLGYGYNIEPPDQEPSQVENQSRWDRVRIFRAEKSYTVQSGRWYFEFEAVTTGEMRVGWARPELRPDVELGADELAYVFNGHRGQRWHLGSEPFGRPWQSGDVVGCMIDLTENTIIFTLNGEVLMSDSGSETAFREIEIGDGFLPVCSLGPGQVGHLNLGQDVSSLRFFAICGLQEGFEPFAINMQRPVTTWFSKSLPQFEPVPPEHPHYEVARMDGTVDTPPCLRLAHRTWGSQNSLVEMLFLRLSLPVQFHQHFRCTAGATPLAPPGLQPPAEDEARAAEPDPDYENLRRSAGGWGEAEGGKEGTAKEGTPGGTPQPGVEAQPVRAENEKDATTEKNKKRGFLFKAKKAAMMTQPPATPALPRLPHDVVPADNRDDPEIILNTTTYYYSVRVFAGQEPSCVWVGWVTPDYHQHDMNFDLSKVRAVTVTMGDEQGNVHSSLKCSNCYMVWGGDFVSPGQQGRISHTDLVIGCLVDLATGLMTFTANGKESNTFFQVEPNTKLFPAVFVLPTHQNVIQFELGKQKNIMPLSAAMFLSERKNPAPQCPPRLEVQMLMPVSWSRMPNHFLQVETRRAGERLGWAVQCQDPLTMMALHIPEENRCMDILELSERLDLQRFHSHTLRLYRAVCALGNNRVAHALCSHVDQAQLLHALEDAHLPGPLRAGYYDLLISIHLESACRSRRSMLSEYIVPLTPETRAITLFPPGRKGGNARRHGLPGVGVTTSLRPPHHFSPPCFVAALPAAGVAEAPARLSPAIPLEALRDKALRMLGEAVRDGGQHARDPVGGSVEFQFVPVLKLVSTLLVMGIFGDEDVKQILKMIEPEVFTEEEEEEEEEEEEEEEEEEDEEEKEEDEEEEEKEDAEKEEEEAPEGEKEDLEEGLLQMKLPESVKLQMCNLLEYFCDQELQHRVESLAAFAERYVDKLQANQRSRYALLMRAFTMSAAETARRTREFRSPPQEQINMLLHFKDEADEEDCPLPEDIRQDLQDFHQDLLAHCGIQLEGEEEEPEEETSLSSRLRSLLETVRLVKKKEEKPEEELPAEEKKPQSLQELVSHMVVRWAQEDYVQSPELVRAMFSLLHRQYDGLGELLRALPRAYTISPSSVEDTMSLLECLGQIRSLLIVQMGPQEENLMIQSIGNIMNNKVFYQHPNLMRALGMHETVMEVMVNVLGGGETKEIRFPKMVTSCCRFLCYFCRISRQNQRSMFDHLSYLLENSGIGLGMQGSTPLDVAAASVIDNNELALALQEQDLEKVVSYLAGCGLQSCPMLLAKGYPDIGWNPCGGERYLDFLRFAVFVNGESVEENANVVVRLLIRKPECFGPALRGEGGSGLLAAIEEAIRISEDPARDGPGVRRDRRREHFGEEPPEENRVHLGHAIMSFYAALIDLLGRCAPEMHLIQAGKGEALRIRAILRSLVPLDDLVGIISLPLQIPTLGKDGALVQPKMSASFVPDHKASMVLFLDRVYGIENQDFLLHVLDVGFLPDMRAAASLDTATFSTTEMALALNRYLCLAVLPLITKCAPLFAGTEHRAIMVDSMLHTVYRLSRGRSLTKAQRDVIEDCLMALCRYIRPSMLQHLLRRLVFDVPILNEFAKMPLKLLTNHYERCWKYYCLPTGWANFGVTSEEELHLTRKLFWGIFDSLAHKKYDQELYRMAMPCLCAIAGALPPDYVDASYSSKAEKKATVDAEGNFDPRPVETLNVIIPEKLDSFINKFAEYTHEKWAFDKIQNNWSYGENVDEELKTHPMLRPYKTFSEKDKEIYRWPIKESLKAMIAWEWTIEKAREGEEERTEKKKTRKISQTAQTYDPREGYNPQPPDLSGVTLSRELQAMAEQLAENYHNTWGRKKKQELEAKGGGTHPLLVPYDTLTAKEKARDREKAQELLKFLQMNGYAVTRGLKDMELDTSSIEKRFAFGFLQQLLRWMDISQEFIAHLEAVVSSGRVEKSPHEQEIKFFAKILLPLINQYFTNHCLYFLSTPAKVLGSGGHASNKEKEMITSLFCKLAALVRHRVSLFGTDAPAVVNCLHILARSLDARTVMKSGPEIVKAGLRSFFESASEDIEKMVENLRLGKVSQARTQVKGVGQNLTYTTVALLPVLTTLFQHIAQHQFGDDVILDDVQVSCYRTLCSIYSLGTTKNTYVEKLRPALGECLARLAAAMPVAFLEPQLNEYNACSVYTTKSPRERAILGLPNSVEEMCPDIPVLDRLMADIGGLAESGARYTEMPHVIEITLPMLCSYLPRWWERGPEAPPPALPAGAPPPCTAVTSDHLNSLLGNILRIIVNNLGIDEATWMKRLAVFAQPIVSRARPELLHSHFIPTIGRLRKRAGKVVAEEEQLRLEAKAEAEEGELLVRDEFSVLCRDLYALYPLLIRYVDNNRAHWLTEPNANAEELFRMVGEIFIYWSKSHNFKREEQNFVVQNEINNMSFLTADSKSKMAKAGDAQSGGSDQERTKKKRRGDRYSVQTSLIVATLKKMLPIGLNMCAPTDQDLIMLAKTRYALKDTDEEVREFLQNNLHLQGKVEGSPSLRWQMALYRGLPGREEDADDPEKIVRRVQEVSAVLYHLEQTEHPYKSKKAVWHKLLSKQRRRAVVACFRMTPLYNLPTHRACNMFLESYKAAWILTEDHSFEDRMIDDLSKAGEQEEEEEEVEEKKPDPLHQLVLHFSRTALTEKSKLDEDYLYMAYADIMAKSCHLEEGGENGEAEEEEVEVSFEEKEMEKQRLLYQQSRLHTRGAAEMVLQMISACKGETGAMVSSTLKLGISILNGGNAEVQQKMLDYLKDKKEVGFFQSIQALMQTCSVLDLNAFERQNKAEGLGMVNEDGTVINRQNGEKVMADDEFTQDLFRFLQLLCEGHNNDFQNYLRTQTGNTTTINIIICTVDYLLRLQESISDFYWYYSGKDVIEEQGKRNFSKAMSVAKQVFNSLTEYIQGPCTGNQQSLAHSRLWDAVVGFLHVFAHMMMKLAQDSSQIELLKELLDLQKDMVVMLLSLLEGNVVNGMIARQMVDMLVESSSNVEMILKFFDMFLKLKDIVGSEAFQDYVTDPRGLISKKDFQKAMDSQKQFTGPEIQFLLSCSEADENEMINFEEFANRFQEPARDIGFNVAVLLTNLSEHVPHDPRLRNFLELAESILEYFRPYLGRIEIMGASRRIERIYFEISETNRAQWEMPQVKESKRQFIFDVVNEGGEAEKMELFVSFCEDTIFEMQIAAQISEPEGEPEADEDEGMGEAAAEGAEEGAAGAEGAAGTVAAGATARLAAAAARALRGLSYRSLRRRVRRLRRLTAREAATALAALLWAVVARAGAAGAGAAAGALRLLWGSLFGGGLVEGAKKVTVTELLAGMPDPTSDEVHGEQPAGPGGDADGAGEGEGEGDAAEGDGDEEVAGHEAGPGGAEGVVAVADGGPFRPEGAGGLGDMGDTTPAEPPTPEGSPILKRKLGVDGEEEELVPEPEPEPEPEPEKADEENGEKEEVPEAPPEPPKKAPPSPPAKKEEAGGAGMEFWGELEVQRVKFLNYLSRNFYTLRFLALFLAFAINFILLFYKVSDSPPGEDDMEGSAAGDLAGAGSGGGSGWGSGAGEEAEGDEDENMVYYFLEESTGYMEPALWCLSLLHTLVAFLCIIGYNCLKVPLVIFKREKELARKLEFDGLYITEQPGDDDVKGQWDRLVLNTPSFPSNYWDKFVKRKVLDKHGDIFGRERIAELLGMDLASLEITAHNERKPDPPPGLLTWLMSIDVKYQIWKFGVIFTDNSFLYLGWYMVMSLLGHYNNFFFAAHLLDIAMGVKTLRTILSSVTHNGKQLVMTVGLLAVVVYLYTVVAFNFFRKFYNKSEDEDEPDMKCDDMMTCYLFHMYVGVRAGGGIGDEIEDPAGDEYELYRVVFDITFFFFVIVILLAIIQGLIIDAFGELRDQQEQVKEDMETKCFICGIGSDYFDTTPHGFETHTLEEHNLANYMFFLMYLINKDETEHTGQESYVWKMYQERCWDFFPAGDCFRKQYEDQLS
Sequence of rabbit skeletal muscle ryanodine receptor Ca^2+ release channel (RyR1) (P11716 whole entry): as above

With COC(=O)N[C@H](C(=O)N[C@@H](Cc1ccccc1)[C@@H](O)CN(Cc1ccc(-c2ccccn2)cc1)NC(=O)[C@@H](NC(=O)OC)C(C)(C)C)C(C)(C)C [ATV, atazanavir] the EC50 [1] was 14.9 ± 1.4 nM, the IC50 [1] was 6200 ± 800 nM and the Ki [1] was 1600 ± 200 nM. For the same molecule, the “maximum percent enhancement of [^3H]ryanodine binding over control” value ([1]; 6.7 nM [^3H]ryanodine, 2 hr at 37°C) was 40.5 ± 5.2%, the “concentrations that enhanced [^3H]ryanodine binding to RyR1” value ([1]; 2 hr at 37°C) was 1 to 20 nM and the “increase in Po of RyR1” value (RyR1; 1.6 μM cis ATV, within 15 sec, 3.3 μM cis Ca^2+) was 40%. For the same molecule, the “effect on conductance of RyR1” value (RyR1; 3.2 μM cis ATV) was “did not alter the conductance”, the “Po of RyR1” value (RyR1; 6.8 μM cis ATV) was 0.92 ± 0.10 and the “conductance of reduced conductance state R’1” value (RyR1; 6.8 μM cis ATV) was 532 ± 34 pS. For the same molecule, the “current amplitude of RyR1 (reduced conductance state R’1)” value (RyR1; 6.8 μM cis ATV) was 74 % of maximum, the “dwell time in the opened state” value (RyR1; 6.8 μM cis ATV, ± 30 mV holding potential) was over 25 ms and the “current amplitude of RyR1 (R’1)” value (RyR1; 20.0 μM and 30.0 μM cis ATV) was 74 % of maximum. For the same molecule, the “Closed- maximally opened transitions (Hz)” value (RyR1; [7]) was 789 ± 25 Hz, the “Dwell time closed state” value (RyR1; [7]) was 1.97 ± 0.03 ms and the “Dwell time open state” value (RyR1; [7]) was 0.66 ± 0.02 ms. The “Po (+30 mV)” value (RyR1; [7]) was 0.14 ± 0.01, the “Closed- maximally opened transitions (Hz)” value (RyR1; [8]) was 1102 ±22 Hz and the “Dwell time closed state” value (RyR1; [8]) was 0.62 ± 0.03 ms. The “Dwell time open state” value (RyR1; [8]) was 2.83 ± 0.08 ms, the “Po (+30 mV)” value (RyR1; [8]) was 0.56 ± 0.03 and the “Closed- maximally opened transitions (Hz)” value (RyR1; [9]) was 206 ± 30 Hz. For the same molecule, the “Dwell time closed state” value (RyR1; [9]) was 0.55 ± 0.07 ms, the “Dwell time open state” value (RyR1; [9]) was 25.12 ± 1.52 ms and the “Po (+30 mV)” value (RyR1; [9]) was 0.92 ± 0.10. For the same molecule, the “Closed- maximally opened transitions (Hz)” value (RyR1; [10]) was 750 ± 55 Hz, the “Dwell time closed state” value (RyR1; [10]) was 2.22 ± 0.15 ms and the “Dwell time open state” value (RyR1; [10]) was 1.44 ± 0.05 ms. The “Po (+30 mV)” value (RyR1; [10]) was 0.60 ± 0.04, the “Closed- maximally opened transitions (Hz)” value (RyR1; [11]) was 142 ±20 Hz and the “Dwell time closed state” value (RyR1; [11]) was 5.65 ± 0.06 ms. For the same molecule, the “Dwell time open state” value (RyR1; [11]) was 0.33 ± 0.01 ms, the “Po (+30 mV)” value (RyR1; [11]) was 0.11 ± 0.01 and the “Closed- maximally opened transitions (Hz)” value (RyR1; [12]) was 225 ±16 Hz. The “Dwell time closed state” value (RyR1; [12]) was 0.43 ± 0.05 ms, the “Dwell time open state” value (RyR1; [12]) was 5.70 ± 0.20 ms and the “Po (+30 mV)” value (RyR1; [12]) was 0.82 ± 0.04. For the same molecule, the “effect on Po of RyR1 of concentrations lower than 1.6 μM” value (RyR1; up to five minutes after addition) was “did not elicit changes in the Po”, the “effect on ATP-dependent Ca^2+ transport by SERCA1” value (SERCA1 [2]; 0 – 31.2 μM, 20 min at 37°C) was “biphasic” and the “effect on Ca^2+ accumulation via SERCA1” value (SERCA1 [2]; > 5 μM) was “inhibiting”. For the same molecule, the “effect on Ca^2+ accumulation via SERCA1” value (SERCA1 [2]; up to 5.0 μM) was “potentiating”, the “Ca^2+ transient in C2C12 cells pretreated with 50 μM ryanodine for 20 min” value [3] was “attenuated the amplitude” and the “diameter of plasma membrane blebs, times larger than that of EFV” value ([3]; 6 μM) was ~ 1.5 ×. The “effect on plasma membrane of C2C12 cells” value ([3]; 6 μM) was “blebbing”, the “rate of Ca^2+ transient rise, times faster than that of EFV” value ([3]; 6 μM) was 7.7 × and the “rate of decay of the Ca^2+ transient, times faster than that of EFV” value ([3]; 6 μM) was 3 x. For the same molecule, the “mean peak amplitude of the Ca^2+ transient” value ([3]; 6 μM, antiretroviral-naïve C2C12 myotubes) was 4.4 ± 0.1 f.u, the “response to a second dose in previously exposed C2C12 cells” value ([3]; second dose 6 μM) was “did not elicit a second Ca^2+ transient” and the “plasma Cmax” value ([4]; 300 mg/day ATV) was ~ 2.2 μg/ml. The Cmax ([4]; 300 mg/day ATV) was about 3 µM, the Cmax ([4]; ATV co-administered with RTV (100 mg/day)) was about 6 µM and the “effect on ATPase activity of SERCA1” value (SERCA1 [5]; 0 – 20 μM, 20 min at 37°C) was “biphasic”. For the same molecule, the “effect on ATPase activity of SERCA1” value (SERCA1 [5]; concentrations higher than 5.0 μM) was “decreased the ATPase activity”, the “effect on ATPase activity of SERCA1” value (SERCA1 [5]; concentrations of 0.25 and 5.0 μM) was “potentiated” and the “fraction dissolved in ethanol/water (1:1)” value [6] was 12.9%. For the same molecule, the “stock concentration in ethanol/water (1:1)” value [6] was 3.2 mM.
